Biological target: T1, ERO1β (Homo sapiens, UniProt Q86YB8)
T1 construct: endogenous in cells; host or cells: PC-9
T1 sequence (Q86YB8 34-467): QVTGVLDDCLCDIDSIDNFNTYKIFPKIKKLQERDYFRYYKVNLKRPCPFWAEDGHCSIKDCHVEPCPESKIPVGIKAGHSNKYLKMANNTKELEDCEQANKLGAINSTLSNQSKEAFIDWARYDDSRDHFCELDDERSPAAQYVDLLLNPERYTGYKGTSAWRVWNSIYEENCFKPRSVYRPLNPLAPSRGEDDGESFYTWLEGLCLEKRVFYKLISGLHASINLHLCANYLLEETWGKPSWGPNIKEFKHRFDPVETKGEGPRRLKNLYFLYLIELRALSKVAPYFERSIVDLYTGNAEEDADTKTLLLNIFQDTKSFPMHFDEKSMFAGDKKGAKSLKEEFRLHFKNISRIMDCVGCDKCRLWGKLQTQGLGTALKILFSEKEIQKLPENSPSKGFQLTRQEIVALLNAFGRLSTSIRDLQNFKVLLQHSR
Experiment: Cellular thermal shift assay (CETSA) in PC-9 cells, ERO1β
Type: cell-based
Settings: 100 μM
Description: To date activity of T151742 towards other flavoenzymes has not been identified at this time. We utilized the Cellular Thermal Shift Assay (CETSA) to determine target engagement of T151742 in vitro using the non-small cell lung cancer (NSCLC) cell line PC-9. The EGFR driven PC-9 cell line was chosen as new treatment strategies are needed in EGFR driven NSCLC as most patients relapse and become resistant to current targeted therapies with development of further mutations such as T790M, C797S as well as emergence of EGFR independent tumors^42, 43. […] First, we determined the aggregation temperature (Tagg) of ERO1α, ERO1β, and LSD-1, which are all FAD dependent enzymes and potential in vitro targets of T15742. […]
Upon addition of T151742, Tagg was quantified for ERO1α, ERO1β, and LSD-1. Quantification of the average of n=3 independent experiments based on western blot analysis for ERO1α, ERO1β, and LSD-1. […] Cellular viability was determined by MTT assay. n=3 independent experiments performed in quadruplicates. ****p<0.0001; by two-way ANOVA.
Cell Lines: PC-9 cell line used was obtained from Sigma Aldrich and grown in RPMI 1640 medium with 10% fetal bovine serum and 1% penicillin/streptomycin. […] Plate was then read on the BioTek Cytation 5 at 530/590 nm. […]

For `CN(C)c1ccc(/C=C2\Oc3cc(O)ccc3C2=O)cc1` [Compound T151742], the “change of Tagg for ERO1β” value was “did not change”.

— patent publication US20250064773A1, “TARGETING ERO1 ALPHA WITH AURONE DERIVATIVES” (West Virginia University Board of Governors on behalf of …, priority 2021, published 2025)
